Measurements: ChEMBL document CHEMBL1201862, “PubChem BioAssay data set” (2004)
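Each compound was tested at five concentrations against cells in 96-well plates for 48 hours. At the GI50, growth is halved.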 The source made the active and inactive calls. No stated cut-off is given here; in the data, active = GI50 up to about 1.1 µM and inactive = higher.

Key:
Assay in all cases: growth of human tumour cells (NCI), 48 h
SF-268 = test system: SF-268
OVCAR-3 = test system: OVCAR-3
MDA-MB-231 = test system: MDA-MB-231
SN12C = test system: SN12C
MDA-MB-435 = test system: MDA-MB-435
IGROV-1 = test system: IGROV-1
M14 = test system: M14
UACC-257 = test system: UACC-257
786-0 = test system: 786-0
HCT-15 = test system: HCT-15
SW-620 = test system: SW-620
NCI-H460 = test system: NCI-H460
ACHN = test system: ACHN
Hs-578T = test system: Hs-578T
Malme-3M = test system: Malme-3M
MOLT-4 = test system: MOLT-4
BT-549 = test system: BT-549
NCI-H522 = test system: NCI-H522
A498 = test system: A498

Row | SMILES | GI50 (SF-268) | GI50 (OVCAR-3) | GI50 (MDA-MB-231) | GI50 (SN12C) | GI50 (MDA-MB-435) | GI50 (IGROV-1) | GI50 (M14) | GI50 (UACC-257) | GI50 (786-0) | GI50 (HCT-15) | GI50 (SW-620) | GI50 (NCI-H460) | GI50 (ACHN) | GI50 (Hs-578T) | GI50 (Malme-3M) | GI50 (MOLT-4) | GI50 (BT-549) | GI50 (NCI-H522) | GI50 (A498)
1 | C[N+]12CCCCC1C(COc1cccc3cccnc13)CCC2 (centres undefined) | > 100 µM (inactive) | 26.6 µM (inactive) | 91.2 µM (inactive) | > 100 µM (inactive) | > 100 µM (inactive) | 75.5 µM (inactive) | > 100 µM (inactive) | > 100 µM (inactive) | > 100 µM (inactive) | > 100 µM | > 100 µM (inactive) | 58.6 µM (inactive) | > 100 µM (inactive) | > 100 µM (inactive) | > 100 µM (inactive) | > 100 µM (inactive) | 42 µM (inactive) | > 100 µM (inactive) | > 100 µM (inactive)
2 | C/C1=C/C(C)CC(C)OC(=O)C(C)NC(=O)C(Cc2ccc(O)c(I)c2)N(C)C(=O)CNC(=O)C(C)C1 (centres undefined) | < 0.0186 µM (active) | < 0.01 µM (active) | < 0.01 µM (active) | 0.0342 µM (active) | < 0.01 µM (active) | < 0.01 µM (active) | 0.0102 µM (active) | < 0.01 µM (active) | < 0.01 µM (active) | < 0.0121 µM | < 0.01 µM (active) | < 0.01 µM (active) | < 0.01 µM (active) | < 0.0109 µM (active) | 0.0272 µM (active) | < 0.0178 µM (active) | < 0.01 µM (active) | < 0.01 µM (active) | < 0.01 µM (active)
3 | CCOC(=O)N/N=C(\CC)NO | > 100 µM (inactive) | > 100 µM (inactive) | > 100 µM (inactive) | > 100 µM (inactive) | > 100 µM (inactive) | > 100 µM (inactive) | – | > 100 µM (inactive) | > 100 µM (inactive) | > 100 µM | > 100 µM (inactive) | > 100 µM (inactive) | > 100 µM (inactive) | > 100 µM (inactive) | > 100 µM (inactive) | > 100 µM (inactive) | > 100 µM (inactive) | > 100 µM (inactive) | > 100 µM (inactive)
4 | COC(=O)c1c(OC(C)=O)ccc2c1c1c(n2C)C(=O)c2ccccc2C1=O | 24.4 µM (inactive) | 17.9 µM (inactive) | 32.8 µM (inactive) | 39.6 µM (inactive) | 23.9 µM (inactive) | 3.86 µM (inactive) | 35.2 µM (inactive) | 13.1 µM (inactive) | 25.5 µM (inactive) | 24.8 µM | – | 22.4 µM (inactive) | 15.6 µM (inactive) | 8.38 µM (inactive) | 23.9 µM (inactive) | 18.3 µM (inactive) | 17 µM (inactive) | 21.7 µM (inactive) | 13.5 µM (inactive)
5 | COc1cc2c(cc1OC)C1=CCC(c3ccccc3)[N+]1(C)CC2 (centres undefined) | > 100 µM (inactive) | > 100 µM (inactive) | > 100 µM (inactive) | – | > 100 µM (inactive) | > 100 µM (inactive) | > 100 µM (inactive) | 33.5 µM (inactive) | > 100 µM (inactive) | > 100 µM | > 100 µM (inactive) | > 100 µM (inactive) | > 100 µM (inactive) | > 100 µM (inactive) | 56.9 µM (inactive) | > 100 µM (inactive) | > 100 µM (inactive) | – | > 100 µM (inactive)
6 | N#CC1=C(N)OC2=C(CSc3ccccc32)C1c1ccc(Br)cc1 (centres undefined) | 11.1 µM (inactive) | 5.57 µM (inactive) | 11.7 µM (inactive) | 6.19 µM (inactive) | 2.6 µM (inactive) | 6.97 µM (inactive) | 9.27 µM (inactive) | 12.1 µM (inactive) | 7.83 µM (inactive) | 4.7 µM | 5.22 µM (inactive) | 12.1 µM (inactive) | – | 28.1 µM (inactive) | 13.4 µM (inactive) | 2.84 µM (inactive) | 10.7 µM (inactive) | – | 13 µM (inactive)
7 | CN(NC(=O)c1ccco1)C1=NCCCCN1 | > 100 µM (inactive) | > 100 µM (inactive) | > 100 µM (inactive) | > 100 µM (inactive) | > 100 µM (inactive) | > 100 µM (inactive) | > 100 µM (inactive) | > 100 µM (inactive) | > 100 µM (inactive) | > 100 µM | > 100 µM (inactive) | > 100 µM (inactive) | > 100 µM (inactive) | > 100 µM (inactive) | > 100 µM (inactive) | > 100 µM (inactive) | > 100 µM (inactive) | > 100 µM (inactive) | –
8 | C/C=C1/CN2CCC3(O)c4ccccc4N4C=C(C(=O)OC)C1CC2C43O (centres undefined) | > 100 µM (inactive) | > 100 µM (inactive) | > 10 µM (inactive) | > 100 µM (inactive) | > 100 µM (inactive) | > 100 µM (inactive) | > 100 µM (inactive) | > 100 µM (inactive) | > 100 µM (inactive) | > 100 µM | > 100 µM (inactive) | > 100 µM (inactive) | > 100 µM (inactive) | > 100 µM (inactive) | > 100 µM (inactive) | 84.1 µM (inactive) | > 100 µM (inactive) | > 100 µM (inactive) | –
9 | O=C(Nn1c(-c2ccccc2)nc2ccccc2c1=O)c1ccccn1 | > 100 µM (inactive) | 79.3 µM (inactive) | > 100 µM (inactive) | > 100 µM (inactive) | > 100 µM (inactive) | > 100 µM (inactive) | > 100 µM (inactive) | > 100 µM (inactive) | > 100 µM (inactive) | – | > 100 µM (inactive) | > 100 µM (inactive) | > 100 µM (inactive) | 27.5 µM (inactive) | > 100 µM (inactive) | > 100 µM (inactive) | > 100 µM (inactive) | 72.8 µM (inactive) | 15.4 µM (inactive)
10 | COc1cc2c3c(n(Cc4ccccc4)c(=O)c2cc1OC)-c1ccccc1C3=O | 82.2 µM (inactive) | > 100 µM (inactive) | > 100 µM (inactive) | 57.1 µM (inactive) | > 100 µM (inactive) | > 100 µM (inactive) | > 100 µM (inactive) | > 100 µM (inactive) | 93.5 µM (inactive) | > 100 µM | > 100 µM (inactive) | 26.7 µM (inactive) | > 100 µM (inactive) | 63.7 µM (inactive) | > 100 µM (inactive) | 20.5 µM (inactive) | > 100 µM (inactive) | > 100 µM (inactive) | –
11 | CCOC(=O)c1c2ccccc2n2c(=O)n(C)nnc12 | 58.9 µM (inactive) | > 27.9 µM (inactive) | > 100 µM (inactive) | > 100 µM (inactive) | > 53.7 µM (inactive) | > 100 µM (inactive) | > 100 µM (inactive) | > 100 µM (inactive) | 89.3 µM (inactive) | > 100 µM | > 100 µM (inactive) | > 100 µM (inactive) | > 84.1 µM (inactive) | > 100 µM (inactive) | > 100 µM (inactive) | – | > 100 µM (inactive) | – | > 100 µM (inactive)
12 | CCC[C@H]1C(=O)N=C(N)N1C(=O)OCc1ccccc1 | > 100 µM (inactive) | > 100 µM (inactive) | > 100 µM (inactive) | > 100 µM (inactive) | > 100 µM (inactive) | > 100 µM (inactive) | – | > 100 µM (inactive) | > 100 µM (inactive) | > 100 µM | > 100 µM (inactive) | > 100 µM (inactive) | > 100 µM (inactive) | > 100 µM (inactive) | > 100 µM (inactive) | > 100 µM (inactive) | > 100 µM (inactive) | > 100 µM (inactive) | > 100 µM (inactive)
13 | CCOC(=O)C1(C#N)C2(C#N)C(N)=NC(ON=C(C)C)(ON=C(C)C)C12C#N (centres undefined) | > 100 µM (inactive) | – | 62.4 µM (inactive) | > 100 µM (inactive) | > 100 µM (inactive) | > 100 µM (inactive) | > 100 µM (inactive) | > 100 µM (inactive) | > 100 µM (inactive) | > 100 µM | > 100 µM (inactive) | > 100 µM (inactive) | > 100 µM (inactive) | > 100 µM (inactive) | > 100 µM (inactive) | > 100 µM (inactive) | > 100 µM (inactive) | > 100 µM (inactive) | > 100 µM (inactive)
14 | O=C(O)CN1C=C(C(=O)c2cc3ccccc3n2S(=O)(=O)c2ccccc2)CCC1 | > 100 µM (inactive) | 51.9 µM (inactive) | > 100 µM (inactive) | – | 43.5 µM (inactive) | 37.2 µM (inactive) | 69.8 µM (inactive) | > 100 µM (inactive) | 50.7 µM (inactive) | 49.2 µM | 69.2 µM (inactive) | 96.2 µM (inactive) | 29.6 µM (inactive) | 81.3 µM (inactive) | 28.4 µM (inactive) | 38.5 µM (inactive) | 83.2 µM (inactive) | – | 69.3 µM (inactive)
15 | O=C1NC(=O)c2ccc([N+](=O)[O-])c3cccc1c23 | 24.4 µM (inactive) | – | 17.1 µM (inactive) | 17.4 µM (inactive) | 16.4 µM (inactive) | 15.9 µM (inactive) | 14.8 µM (inactive) | 16.9 µM (inactive) | 14 µM (inactive) | 5.31 µM | 13 µM (inactive) | 11.5 µM (inactive) | 19 µM (inactive) | 25.2 µM (inactive) | – | – | 19.2 µM (inactive) | 2.01 µM (inactive) | 13.2 µM (inactive)
16 | CCOc1ccc2ccc3cccnc3c2n1 | > 100 µM (inactive) | 21.9 µM (inactive) | 38.4 µM (inactive) | > 100 µM (inactive) | 49.3 µM (inactive) | 38.5 µM (inactive) | 47.2 µM (inactive) | 26.9 µM (inactive) | 66.2 µM (inactive) | 54.3 µM | 62.7 µM (inactive) | 36.3 µM (inactive) | 40.6 µM (inactive) | > 100 µM (inactive) | 97.1 µM (inactive) | – | > 100 µM (inactive) | > 100 µM (inactive) | 21 µM (inactive)
